Experimental data published in patent publication US12422427B2, “Compounds for treatment of diseases and methods of screening therefor” (Max-Planck-Gesellschaft zur Förderung der Wissenschaften …, priority 2018, dated 2025).

Tests used:
FUS GFP [1] = molecular target: T1, FUS GFP (Homo sapiens, UniProt P35637); assay: In vitro purified FUS GFP droplet screen; format: biochemical; conditions: low salt conditions, 1 mM DTT, up to 100 μM compound
T1 construct: His MBP (N, cleaved yes); made in house; host or cells: baculovirus/insect cell expression system
T1 sequence (P35637 1-526): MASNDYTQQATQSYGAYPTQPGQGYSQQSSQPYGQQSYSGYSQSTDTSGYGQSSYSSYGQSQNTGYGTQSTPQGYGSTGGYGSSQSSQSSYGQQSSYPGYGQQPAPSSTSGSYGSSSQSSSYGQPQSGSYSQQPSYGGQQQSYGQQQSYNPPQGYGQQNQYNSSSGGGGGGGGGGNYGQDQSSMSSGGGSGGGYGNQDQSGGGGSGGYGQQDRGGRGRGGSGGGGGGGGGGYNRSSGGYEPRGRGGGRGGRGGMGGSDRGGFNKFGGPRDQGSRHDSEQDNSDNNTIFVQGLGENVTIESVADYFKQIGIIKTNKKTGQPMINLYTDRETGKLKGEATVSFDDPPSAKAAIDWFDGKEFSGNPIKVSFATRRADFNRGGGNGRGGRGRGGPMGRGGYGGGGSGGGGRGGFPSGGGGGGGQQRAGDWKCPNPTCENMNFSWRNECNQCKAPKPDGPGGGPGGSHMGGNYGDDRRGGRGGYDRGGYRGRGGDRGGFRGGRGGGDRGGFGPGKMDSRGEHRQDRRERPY
Experimental: Compounds that can directly interact with FUS were of primary interest, therefore the inventors performed a follow up screen for action of compounds on FUS droplet formation in vitro (FIG. 1D). […] Hits were identified by the effect on number of FUS droplets formed and the partition of FUS into the droplets formed under low salt conditions in vitro in the presence of 1 mM DTT to mimic the reducing intracellular environment (FIG. 1E).
The effect of compounds on FUS GFP droplets in vitro was assessed in 384 well plate format. The compound volume (in DMSO) necessary for 1, 3, 10, 30 or 100 μM final concentration were added by acoustic dispensing (Labcyte Echo 550) to 96 well plate wells containing 3 μl FUS GFP diluted in 50 mM Tris. HCl pH 7.4, 1 mM DTT (for low salt assays). Final DMSO concentration was 0.01 to 1%. Using a Freedom Evo 200 liquid handling workstation (TECAN) the FUS GFP/compound mixture was diluted in 7 μl assay buffer containing 50 mM Tris. HCl pH 7.4, 1 mM DTT, 50 mM KCl and 0.7 μM FUS GFP. Compound/FUS GFP and assay buffer were mixed by a standardised pipetting procedure then split to four wells in clear bottom 384 well plates then immediately imaged using a CellVoyager CV7000 automated spinning disc confocal microscope (as above). […] Droplet number and FUS GFP partition into droplets were analysed with a fixed intensity threshold using ImageJ.

[2] = test system: HeLa cells expressing FUS GFP; assay: HeLa cell compound dose responses (FUS GFP, arsenate stress); format: cell-based; conditions: 1 h pre-treatment, 1 h arsenate stress
Experimental: Small dilution steps rather than concentration replicates were selected as it provides greater statistical power from a set number of samples. Final DMSO concentration was 0.08% in all samples, and each plate included at least 12 control wells with 0.08% DMSO. Cytoplasmic FUS droplet number and nuclear/cytoplasm partition of FUS were analysed using custom macros in ImageJ. Nuclei were identified by intensity thresholding of the blue fluorescence image following a 5 px Gaussian blur. Cytoplasmic FUS droplets by intensity thresholding of the green image following a 10 px weight 0.9 unsharp filter masked by the thresholded nuclei, and nuclear FUS droplets by intensity thresholding of the green image following a 5 px weight 0.9 unsharp filter and 10 px rolling ball background subtraction masked to only include thresholded nuclei. The ratio of cytoplasmic FUS drops to nuclei was taken as cytoplasmic FUS droplets per cell per field of view, and p, the ratio of partition of FUS to the nucleus and the cytoplasm, was derived from a=Vn/vt, the ratio of nuclear to total green signal per field of view, where p=a/(1−a). […] Six fields of view were captured and analysed per condition.

[3] = test system: P bodies, Cajal bodies, PML bodies, DNA damage foci, nucleolus; assay: Effect on other non-membrane bound compartments in HeLa GFP marker lines; format: cell-based
Experimental: FIG. 4A) Images of HeLa cells expressing Protein GFP markers of other non-membrane bound compartments subject to 1 h treatment with 10 μM compound (or DMSO control). Where unclear, the position of nuclei is indicated with a dotted outline. […] FIG. 4B) Recruitment of FUS GFP to sites of UV laser-induced DNA damage in iPS cells after 1 h treatment with compound followed by 1 h arsenate stress.
Stress granules are one of several, similar, cytoplasmic RNA-containing liquid-like compartments. […] Several stress granule proteins also form nuclear bodies: nuclear paraspeckles, and foci at the sites of DNA damage. There are also many other nuclear liquid-like compartments. It was then asked whether lipoamide also affected these other bodies, using a panel of cell lines expressing GFP fusions. For this analysis, mitoxantrone was included as a representative of the heterotri-/tetracyclic compound class of hits (FIG. 1F). An overly-broad effect on liquid-like compartments would likely cause side-effects for a therapeutic.
The action of lipoamide is therefore specific to the signaling and/or physical chemistry driving stress granule formation, stress granule phase separation, and/or a specific signaling route. Stress granules normally form and dissolve rapidly in comparison to many other compartments.

FUS GFP [4] = assay: Ex vivo DNA cut assay: FUS GFP recruitment to UV laser-induced DNA damage; format: cell-based, human
Description: FUS is recruited to sites of DNA damage, and a potential mechanism contributing to ALS pathogenesis is reduced DNA damage response due to sequestration of FUS in the cytoplasm in stress granules. Strong association of FUS nuclear localization (NLS) mutations (e.g., P525L) with familial ALS mutations supports this hypothesis. The inventors therefore tested whether lipoamide affect FUS recruitment to sites of DNA damage induced by focused UV laser irradiation site, using arsenate-stressed iPSCs expressing FUS GFP (FIG. 4B). […] The action of lipoamide is therefore specific to cytoplasmic FUS liquid-like compartments, a therapeutically useful feature.
UV micro-irradiation of live cells was performed to induce DNA damage. KOLF iPS MNs expressing […] were […]. A single point in the nucleus was subject to 3 UV pulses as described for FRAP, but at 10% laser power. GFP fluorescence was imaged at 1 Hz, and intensity of response was analysed in ImageJ.

[5] = molecular target: T2, FUS low complexity domain (residues 1 to 163) (Homo sapiens, UniProt P35637); assay: 1H-15N HSQC NMR of FUS low complexity domain with compound; format: binding; conditions: 500 μM compound
T2 construct: untagged FUS low complexity domain (residues 1 to 163) expressed, purified and analysed; made in house
T2 sequence (P35637 1-163): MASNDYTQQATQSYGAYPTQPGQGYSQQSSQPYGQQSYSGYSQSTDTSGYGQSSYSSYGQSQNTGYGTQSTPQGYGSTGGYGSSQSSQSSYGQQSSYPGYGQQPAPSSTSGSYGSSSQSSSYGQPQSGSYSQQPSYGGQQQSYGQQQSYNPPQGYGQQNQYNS
Experimental: Finally, mechanistic detail was analyzed at the sub-molecular level by using NMR of the FUS prion-like N-terminal LCD to determine putative sites of lipoamide interaction. The LCD is able to phase separate to form condensates in vitro and the individual residues can be resolved and assigned in a ^1H-^15N heteronuclear single quantum coherence spectrum. ^1H-^15N analyses reveal a change in environment of individual residues as indicated by their corresponding chemical shifts. The magnitude of chemical shift changes were compared with and without both lipoamide or mitoxantrone. […] This leaves several possibilities: Perhaps lipoamide interacts with the FUS LCD only when phase separated, potentially reducing viscosity, or interacts with the condensate phase boundary, perhaps increasing surface tension. Such interactions may reduce formation or expansion of aggregated forms of FUS involved in condensate hardening and reduced liquidity.
For analysis of compound interaction with FUS untagged FUS low complexity domain (residues 1 to 163) expressed, purified and analysed using ^1H-^15N heteronuclear single quantum coherence NMR and sample conditions previously described^14 in the presence of 500 μM compound or equivalent DMSO solvent control (1%).

In the case of `O=C1c2c(O)ccc(O)c2C(=O)c2c(NCCNCCO)ccc(NCCNCCO)c21` [mitoxantrone, reference compound], the “FUS GFP droplet number, partition into droplets and droplet size” value (FUS GFP [1]) was “fewer smaller drops”, the “nuclear/cytoplasm FUS partition, dose response” value [2] was “decreased nuclear/cytoplasm FUS partition” and the “stress granule number, dose response” value [2] was “reducing stress granule number”. The “disruption of P bodies (DCP1A), Cajal bodies (COIL), DNA damage foci (TRP53BP1), nucleolus (NCB1)” value ([3]; 1 h treatment with 10 μM compound) was “non-stress granule specific effects”, the “localization of P-body, PML body and DNA damage focus proteins” value ([3]; conditions that would dissolve stress granules) was “affected all of these compartments to some extent” and the “FUS GFP recruitment to sites of DNA damage” value (FUS GFP [4]; concentrations not sufficient to dissolve cytoplasmic FUS droplets) was “blocked recruitment of FUS GFP to sites of DNA damage”. The “formation of nuclear FUS droplets at the sites of DNA damage (FIG. 4B legend)” value (FUS GFP [4]; iPS cells, arsenate stress) was “prevents formation of nuclear FUS droplets” and the “chemical shift changes of FUS LCD residues” value [5] was “weak shifts across the LCD”.
